According to the NIST ThermoML archive (doi:10.1016/j.jct.2017.08.028):

Assay: molar heat capacity at constant pressure
Settings: 101.33 kPa, Crystal, Small (less than 1 g) adiabatic calorimetry

O[C@H]1[C@H](O)[C@@H](O)[C@H](O)[C@@H](O)[C@H]1O [cis-1,2,3,5-trans-4,6-cyclohexanehexol]
Settings	molar heat capacity at constant pressure [J/K/mol]
5 K	0.095
6 K	0.1967
7 K	0.3623
8 K	0.6094
8.37 K	0.774
8.4 K	0.78
8.51 K	0.803
8.64 K	0.841
8.77 K	0.885
8.91 K	0.93
9 K	0.9596
9.05 K	0.977
9.2 K	1.034
9.34 K	1.096
9.5 K	1.162
9.65 K	1.224
9.81 K	1.296
9.98 K	1.381
10 K	1.387
10.17 K	1.467
10.39 K	1.577
10.59 K	1.677
10.81 K	1.817
11.05 K	1.945
11.28 K	2.084
11.52 K	2.218
11.76 K	2.363
12 K	2.535
12.25 K	2.7
12.5 K	2.861
12.75 K	3.034
13.01 K	3.189
13.27 K	3.362
13.53 K	3.524
13.81 K	3.727
14.08 K	3.897
14.35 K	4.078
14.63 K	4.226
14.91 K	4.431
15 K	4.502
15.19 K	4.618
15.47 K	4.81
15.75 K	4.99
16.04 K	5.208
16.32 K	5.4
16.61 K	5.588
16.9 K	5.795
17.2 K	5.99
17.49 K	6.202
17.78 K	6.394
18.08 K	6.622
18.37 K	6.852
18.67 K	7.06
18.97 K	7.278
19.27 K	7.496
19.57 K	7.721
19.87 K	7.949
20 K	8.03
20.46 K	8.428
21.33 K	9.104
22.21 K	9.711
23.1 K	10.41
24 K	11.09
24.9 K	11.77
25 K	11.83
25.81 K	12.44
26.73 K	13.12
27.66 K	13.84
28.59 K	14.6
30 K	15.78
30.38 K	16.06
31.42 K	16.86
32.38 K	17.74
33.35 K	18.4
34.31 K	19.3
35 K	19.73
35.28 K	20.02
36.25 K	20.7
37.23 K	21.47
38.21 K	22.22
39.19 K	22.99
40 K	23.57
40.18 K	23.66
41.16 K	24.37
42.15 K	25.13
43.15 K	25.81
44.14 K	26.63
45 K	27.22
45.14 K	27.34
46.17 K	28.07
47.17 K	28.86
48.17 K	29.58
49.18 K	30.39
50 K	30.99
50.18 K	31.12
51.2 K	31.92
53.79 K	33.97
54.97 K	34.9
55.99 K	35.65
57.01 K	36.49
58.03 K	37.34
59.05 K	38.14
60 K	38.84
60.07 K	38.87
61.1 K	39.73
62.12 K	40.52
63.15 K	41.35
64.17 K	42.18
65.2 K	43.06
66.23 K	43.91
67.26 K	44.68
68.29 K	45.54
69.32 K	46.48
70 K	46.97
